Experimental data as given in patent US9126999B2, “Tetrahydropyrazolopyrimidine compounds” (EISAI R&D MANAGEMENT CO., LTD., priority 2012, dated 2015).

How the values were obtained:
Human TLR7/8 = tested on: T1, Human TLR7/8; assay: Human PBMC cell-based assay, RNA-Ig (SL4-Ig) stimulus, cytokine ELISA; conditions: Hu PBMC; ligand RNA-Ig; analyte IP-10
T1 construct: IC50; other: Hu PBMC; ligand RNA-Ig; analyte IP-10
Method in brief: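 Ficoll-isolated human PBMC treated in triplicate with antagonist (final 0.1% DMSO), then stimulated with RNA-Ig (SL4-Ig) complex preincubated 15-30 min. Incubation 20 h at 37° C., 5% CO2; supernatant cytokines quantified by ELISA.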

Human TLR4 = Human TLR4 (Homo sapiens, UniProt O00206); assay: Human PBMC cell-based assay, LPS stimulus, IL-6 ELISA; parameters: endogenous in cells; host or cells: primary human PBMC from healthy donor blood; conditions: Hu PBMC; ligand LPS; analyte IL-6
Experimental: (§1) Human peripheral blood mononuclear cells (PBMC) were isolated from freshly-drawn heparinized (10 USP units/ml, Hospira, Lakeforest, Ill.) healthy donor whole blood by density gradient (Histopaque® 1077, Sigma, Inc., St. Louis, Mo.). Briefly, 25 ml blood was diluted with 15 ml PBS (without Ca^2+, Mg^2+) in a 50 ml conical tube, and 12 ml Histopaque was underlaid using a spinal needle. Tubes were centrifuged for 45 minutes at 1200 rpm (350×g), and PBMC were collected from the buffy coat. Cells were then washed twice in PBS, and red blood cells were lysed by suspension in 5 ml ammonium chloride solution (1× Red Blood Cell Lysis Buffer, eBioscience) for 5 minutes at room temperature. […]
(§2) Antagonist compounds solubilized and serial diluted in 100% DMSO were added in triplicate to cells to yield a final concentration of 0.1% DMSO (v/v). […] Cell culture supernatants were collected, and levels of various human cytokines were assessed as indicated by standard ELISA procedure according to the manufacturer's recommended protocol (BD Biosciences, Inc., San Diego, Calif.).

Human TLR1/2 = biological target: T2, Human TLR1/2 (Homo sapiens, UniProt O60603+Q15399); assay: Human PBMC cell-based assay, Pam3CSK4 stimulus, IL-6 ELISA; conditions: Hu PBMC; ligand Pam3CSK4; analyte IL-6
T2 construct: endogenous in cells; host or cells: primary human PBMC from healthy donor blood
Experimental: as §1, §2

Chain of Human TLR4 (O00206 24-839): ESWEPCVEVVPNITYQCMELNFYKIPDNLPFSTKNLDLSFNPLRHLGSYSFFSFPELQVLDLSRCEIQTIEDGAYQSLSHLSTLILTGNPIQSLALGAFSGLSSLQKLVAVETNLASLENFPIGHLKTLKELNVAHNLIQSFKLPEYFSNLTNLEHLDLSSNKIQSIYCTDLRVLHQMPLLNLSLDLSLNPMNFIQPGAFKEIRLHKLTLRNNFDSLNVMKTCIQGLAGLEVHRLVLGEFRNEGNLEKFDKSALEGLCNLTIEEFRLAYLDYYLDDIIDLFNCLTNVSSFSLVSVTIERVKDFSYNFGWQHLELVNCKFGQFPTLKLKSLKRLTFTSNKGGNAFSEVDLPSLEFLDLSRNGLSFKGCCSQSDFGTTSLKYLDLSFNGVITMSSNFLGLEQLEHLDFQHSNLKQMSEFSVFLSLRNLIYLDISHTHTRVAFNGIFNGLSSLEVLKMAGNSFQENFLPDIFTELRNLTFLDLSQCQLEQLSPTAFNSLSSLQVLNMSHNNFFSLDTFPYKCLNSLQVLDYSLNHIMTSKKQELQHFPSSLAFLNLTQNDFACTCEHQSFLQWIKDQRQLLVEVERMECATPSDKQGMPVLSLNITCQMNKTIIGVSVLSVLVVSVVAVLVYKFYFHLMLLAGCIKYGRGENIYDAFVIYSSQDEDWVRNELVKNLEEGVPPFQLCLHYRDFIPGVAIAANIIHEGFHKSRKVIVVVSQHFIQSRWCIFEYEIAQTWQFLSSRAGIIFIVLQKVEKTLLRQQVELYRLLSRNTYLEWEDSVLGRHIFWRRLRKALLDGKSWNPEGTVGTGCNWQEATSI
Chain of Human TLR4 (Q9Y6Y9 19-160 partner): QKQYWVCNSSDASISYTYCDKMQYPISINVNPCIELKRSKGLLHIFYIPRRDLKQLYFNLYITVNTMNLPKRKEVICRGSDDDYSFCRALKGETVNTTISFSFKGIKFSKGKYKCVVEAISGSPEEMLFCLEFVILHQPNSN
T2 sequence (Q15399 25-786): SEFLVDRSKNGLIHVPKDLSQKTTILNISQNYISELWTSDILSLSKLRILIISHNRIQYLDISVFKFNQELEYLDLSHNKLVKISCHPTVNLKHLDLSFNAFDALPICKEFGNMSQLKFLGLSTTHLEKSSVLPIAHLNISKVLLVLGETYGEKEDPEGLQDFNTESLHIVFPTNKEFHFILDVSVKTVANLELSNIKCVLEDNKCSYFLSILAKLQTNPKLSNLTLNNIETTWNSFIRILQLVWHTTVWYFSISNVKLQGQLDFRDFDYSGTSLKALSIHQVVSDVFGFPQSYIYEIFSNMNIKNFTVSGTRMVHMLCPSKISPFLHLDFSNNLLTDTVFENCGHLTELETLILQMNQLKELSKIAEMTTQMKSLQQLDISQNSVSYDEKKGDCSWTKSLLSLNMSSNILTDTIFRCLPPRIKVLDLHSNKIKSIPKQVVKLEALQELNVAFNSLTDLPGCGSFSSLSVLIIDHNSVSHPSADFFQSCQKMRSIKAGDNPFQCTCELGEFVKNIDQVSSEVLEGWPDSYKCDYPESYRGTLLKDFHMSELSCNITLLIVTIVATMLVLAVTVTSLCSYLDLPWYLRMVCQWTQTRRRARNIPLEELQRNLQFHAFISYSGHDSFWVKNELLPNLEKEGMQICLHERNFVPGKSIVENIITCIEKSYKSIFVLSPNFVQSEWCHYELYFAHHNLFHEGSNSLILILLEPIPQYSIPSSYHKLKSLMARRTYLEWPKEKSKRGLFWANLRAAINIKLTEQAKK
T2 sequence (O60603 19-784 limits assumed): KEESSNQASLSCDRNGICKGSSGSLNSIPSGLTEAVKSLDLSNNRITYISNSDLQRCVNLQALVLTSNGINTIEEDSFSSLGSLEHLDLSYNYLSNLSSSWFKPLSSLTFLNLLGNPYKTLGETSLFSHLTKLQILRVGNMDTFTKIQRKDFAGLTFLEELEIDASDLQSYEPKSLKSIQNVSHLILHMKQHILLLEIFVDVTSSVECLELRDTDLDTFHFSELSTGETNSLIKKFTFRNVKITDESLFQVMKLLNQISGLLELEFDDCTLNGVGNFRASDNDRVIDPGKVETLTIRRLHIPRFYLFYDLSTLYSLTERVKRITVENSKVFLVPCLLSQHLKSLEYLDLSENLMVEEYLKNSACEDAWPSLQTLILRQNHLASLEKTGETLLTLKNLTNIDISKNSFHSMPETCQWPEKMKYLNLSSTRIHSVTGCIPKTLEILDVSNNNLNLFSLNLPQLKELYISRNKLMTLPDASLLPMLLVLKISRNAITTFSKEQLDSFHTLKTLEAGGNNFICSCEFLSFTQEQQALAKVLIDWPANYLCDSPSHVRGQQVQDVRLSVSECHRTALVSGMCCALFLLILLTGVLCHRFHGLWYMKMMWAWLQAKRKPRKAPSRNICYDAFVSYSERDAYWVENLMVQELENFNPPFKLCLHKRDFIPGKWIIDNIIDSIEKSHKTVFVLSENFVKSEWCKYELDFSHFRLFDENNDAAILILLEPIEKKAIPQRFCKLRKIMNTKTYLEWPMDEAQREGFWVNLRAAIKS

With `COc1ccc([C@@H]2C[C@H](C(F)(F)F)n3nc(-c4ccc(C(=O)N5CCNCC5)cc4)cc3N2)cc1OC` [ER-892887, (4-((5S,7R)-5-(3,4-dimethoxyphenyl)-7-(trifluoromethyl)-4,5,6,7-tetrahydropyrazolo[1,5-a]pyrimidin-2-yl)phenyl)(piperazin-1-yl)methanone] the IC50 (Human TLR7/8) was 0.045 µM, the IC50 (Human TLR4) was > 10 µM and the IC50 (Human TLR1/2) was > 10 µM.
